Consider one molecule from patent US20110105554A1, “MEANS FOR TREATING MYOSIN-RELATED DISEASES” (KINARIS BIOMEDICALS GMBH, priority 2007, published 2011).

In assay [1] the target is chicken myosin-5a (Gallus gallus, UniProt Q02440). Kind of assay: Actin-activated ATPase activity (NADH-coupled assay), chicken myosin-5a. It is filed as biochemical. How it is done:
(§1) Based on the structure of the myosin-2 motor domain with bound PBP, we performed molecular modeling studies to elucidate the specificity of PBP-binding to myosins from different classes. […] To test the predictions from the modeling studies, we determined actin-activated ATPase activities in the presence of 0 to 150 μM PBP with rabbit skeletal myosin-2 heavy meromyosin (HMM), myosin-5a isolated from chicken brain, and recombinant Dictyostelium myosin class-1, 2 and 5 motor-domain constructs (FIG. 9a). […] The concentrations of PBP required for half-maximal inhibition of the different myosin motors was calculated from fitting the data to hyperbolae. […] To determine the extend to which PBP impairs the coupling between the actin- and nucleotide-binding sites of myosin, we measured the ATP turn-over rates of Dictyostelium myosin-2 and myosin-5b motor domain constructs over the range from 0 to 50 μM F-actin in the absence and presence of 25 μM PBP.
(§2) Protein preparation. Rabbit fast skeletal muscle heavy meromyosin (HMM) was prepared as described by Kron and Spudich^9. […]
(§3) Steady-state kinetics. Basal and actin-activated Mg^2+-ATPase activities were measured with the NADH-coupled assay^19 in a buffer containing 25 mM HEPES, 25 mM KCl, and 4 mM MgCl2, 0.5 mM DTT at pH 7.0 in the presence of 1 mM ATP at 25° C. […]

Assay [2] deals with T1, Dictyostelium myosin-1E (Dictyostelium discoideum, UniProt Q03479).
T1 construct: comprising amino acids 1-698, 1-765, and 1-839 respectively; made in house
T1 sequence (Q03479 1-698): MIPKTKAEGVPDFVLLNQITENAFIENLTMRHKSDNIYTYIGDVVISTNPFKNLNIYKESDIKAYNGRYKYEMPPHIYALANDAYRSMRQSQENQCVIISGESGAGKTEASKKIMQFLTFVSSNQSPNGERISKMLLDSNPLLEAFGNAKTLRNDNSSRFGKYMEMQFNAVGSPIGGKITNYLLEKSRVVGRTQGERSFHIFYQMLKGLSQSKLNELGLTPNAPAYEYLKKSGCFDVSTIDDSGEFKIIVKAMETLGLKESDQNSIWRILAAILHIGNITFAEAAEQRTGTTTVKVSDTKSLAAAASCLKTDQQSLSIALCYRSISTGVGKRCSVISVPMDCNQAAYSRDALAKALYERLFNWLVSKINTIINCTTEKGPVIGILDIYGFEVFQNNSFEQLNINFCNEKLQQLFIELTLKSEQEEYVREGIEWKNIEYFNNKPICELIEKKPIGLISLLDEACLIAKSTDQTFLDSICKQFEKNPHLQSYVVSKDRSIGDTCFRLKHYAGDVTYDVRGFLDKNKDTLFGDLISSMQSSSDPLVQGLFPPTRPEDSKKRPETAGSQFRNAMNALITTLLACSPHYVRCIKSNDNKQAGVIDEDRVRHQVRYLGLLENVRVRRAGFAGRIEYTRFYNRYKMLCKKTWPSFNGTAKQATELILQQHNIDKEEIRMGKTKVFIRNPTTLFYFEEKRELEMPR
Nature of the assay: Actin-activated ATPase activity (NADH-coupled assay), Dictyostelium myosin-1E. It is filed as biochemical. As for the experimental part: as §1, §2, §3

Assay [3] addresses myosin-1E (Dictyostelium discoideum, UniProt Q03479). Kind of assay: In vitro motility assay (actin filament sliding), myosin-1E. It is filed as biochemical. Conditions: data not shown. How it is done: The extent and order of isoform-specific differences in the potency of the inhibitor were additionally confirmed by the results of in vitro motility assays). […] (FIG. 11a) Myosin-5a moves actin filaments with an average velocity of 0.6 μm/s±0.05 (dark bars); addition of 10 μM PBP into the same flow cell lead to a 46-fold reduction of the average sliding velocity to 0.013 μm/s±0.002 (light grey bars).
Direct functional Assays. Actin-sliding motility was performed at 25° C. using an Olympus IX81 inverted fluorescence microscope. Experimental flow cells were constructed using bovine serum albumin (0.5 mg/ml in assay buffer)-coated glass slides and nitrocellulose-coated coverslips. Myosins were actin affinity-purified immediately before use, to remove rigor heads^20. Sliding movement was started by adding assay buffer containing 4 mM ATP, 10 mM DTT, 0.5 mg/ml bovine serum albumin, anti-fade solution, and 0.5% methylcellulose to the flow cell. Average sliding velocity was determined from the Gaussian distribution of automatically tracked actin filaments using DiaTrack 3.0 and Origin 7.0.

Assay [4] concerns Saccharomyces cerevisiae cells. Nature of the assay: Myo2p-dependent changes in mitochondrial morphology in yeast. It is filed as cell-based. How it is done:
FIG. 13: Myo2p-dependent changes in mitochondrial morphology. In yeast cells, the class-5 myosins Myo2p is responsible for the distribution of mitochondria between mother and daughter cells during cytokinesis and has be shown to affect mitochondrial morphology during […]. […] Insets show the same cells viewed under transmitted light. Bar: 5 μm
To test the specific inhibition of myosin-5 function in a cellular context, we exposed Saccharomyces cerevisiae cells to 100 to 500 nM PBP. S. cerevisiae has five myosin heavy chain genes: a myosin-2, two class-1 myosins, and the class-5 myosins Myo2p and Myo4p. Myo2p plays a crucial role in polarized distribution of mitochondria and is required for retention of newly inherited mitochondria in yeast cells during cell division^4-6. Myo4p is required for mRNA transport and facilitates movement of ER tubules into the growing bud. Myo4p null mutants are viable and display no detectable phenotype. Deletion of the myo3 and myo5 genes, encoding class-1 myosins, leads to severe defects in growth and actin cytoskeletal organization. Severe growth defects are also observed upon depletion of the class-2 myosin Myo1p. Therefore, we expected that selective inhibition of class-5 myosins will produce readily detectable changes in the morphology of mitochondria without affecting cell growth and cytokinesis. To facilitate the visual inspection of mitochondrial morphology, we transfected the cells used for these experiments with an expression vector for the production of mitochondria-targeted GFP^7. A yeast mutant strain with myo2 expression under the control of the TetO7 promoter was used as control^8. Repression of the TetO7 promoter by the addition of 10 μg/ml deoxycycline to the culture medium of this strain led to an apparent fragmentation of mitochondria.
Myo2p-dependent changes in mitochondrial morphology. […] Yeast strains producing mitochondria-targeted GFP were supplied by Dr. B. Westermann^7, allowing us to study the morphology of yeast mitochondria in a fluorescence microscope. […] Cells were analyzed at the end of the logarithmic growth phase. […]

Chain of chicken myosin-5a (Q02440 1-764): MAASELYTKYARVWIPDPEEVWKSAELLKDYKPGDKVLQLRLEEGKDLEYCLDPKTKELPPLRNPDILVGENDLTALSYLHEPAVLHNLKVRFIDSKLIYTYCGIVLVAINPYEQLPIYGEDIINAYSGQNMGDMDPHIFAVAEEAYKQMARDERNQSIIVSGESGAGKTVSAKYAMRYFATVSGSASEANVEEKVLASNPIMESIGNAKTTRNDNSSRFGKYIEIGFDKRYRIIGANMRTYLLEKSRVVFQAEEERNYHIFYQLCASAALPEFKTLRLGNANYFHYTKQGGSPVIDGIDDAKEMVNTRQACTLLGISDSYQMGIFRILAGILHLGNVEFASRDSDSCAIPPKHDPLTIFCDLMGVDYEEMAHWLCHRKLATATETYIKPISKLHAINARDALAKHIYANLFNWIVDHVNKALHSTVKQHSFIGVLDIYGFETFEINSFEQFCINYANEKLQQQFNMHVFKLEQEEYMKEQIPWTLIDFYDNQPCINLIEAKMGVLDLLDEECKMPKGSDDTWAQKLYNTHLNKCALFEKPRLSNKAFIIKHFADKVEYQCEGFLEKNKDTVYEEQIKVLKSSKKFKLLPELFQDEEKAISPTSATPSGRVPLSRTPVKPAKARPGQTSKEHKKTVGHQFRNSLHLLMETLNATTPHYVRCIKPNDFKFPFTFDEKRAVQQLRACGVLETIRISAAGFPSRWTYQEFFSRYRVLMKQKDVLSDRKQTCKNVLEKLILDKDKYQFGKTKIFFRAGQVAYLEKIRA
Chain of myosin-1E (Q03479 whole entry, canonical isoform): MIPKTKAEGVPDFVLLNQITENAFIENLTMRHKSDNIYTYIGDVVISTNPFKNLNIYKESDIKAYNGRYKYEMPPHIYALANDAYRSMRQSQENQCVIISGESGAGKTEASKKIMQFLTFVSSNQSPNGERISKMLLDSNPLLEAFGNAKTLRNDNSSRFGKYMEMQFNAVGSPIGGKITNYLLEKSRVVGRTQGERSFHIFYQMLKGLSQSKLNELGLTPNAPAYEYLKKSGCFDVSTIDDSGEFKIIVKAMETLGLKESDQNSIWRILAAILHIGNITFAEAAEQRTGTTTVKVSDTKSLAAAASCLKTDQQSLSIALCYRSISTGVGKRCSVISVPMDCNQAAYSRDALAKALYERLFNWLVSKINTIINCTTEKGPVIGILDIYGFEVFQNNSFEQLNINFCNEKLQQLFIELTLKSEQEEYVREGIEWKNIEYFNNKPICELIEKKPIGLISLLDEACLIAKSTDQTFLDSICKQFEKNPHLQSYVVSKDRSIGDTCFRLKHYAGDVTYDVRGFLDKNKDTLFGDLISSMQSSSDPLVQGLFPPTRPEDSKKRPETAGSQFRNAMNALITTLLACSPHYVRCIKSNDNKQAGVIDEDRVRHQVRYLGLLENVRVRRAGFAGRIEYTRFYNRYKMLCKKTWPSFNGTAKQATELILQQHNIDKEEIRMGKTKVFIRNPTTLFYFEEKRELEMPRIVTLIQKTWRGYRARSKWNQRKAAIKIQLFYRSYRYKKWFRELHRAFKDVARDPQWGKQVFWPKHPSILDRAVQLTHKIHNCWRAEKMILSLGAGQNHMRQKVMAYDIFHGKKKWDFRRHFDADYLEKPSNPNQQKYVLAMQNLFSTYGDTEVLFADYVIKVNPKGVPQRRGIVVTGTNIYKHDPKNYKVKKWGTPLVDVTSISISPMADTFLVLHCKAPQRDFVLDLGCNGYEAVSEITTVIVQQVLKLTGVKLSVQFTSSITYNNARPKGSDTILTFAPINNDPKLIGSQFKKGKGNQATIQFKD

Take `Oc1c(Br)cc(Br)cc1-c1[nH]c(Br)c(Br)c1Br` [KIN-43]: the “ATPase activity at 30 μM F-actin in the presence of inhibitor” value in assay [1] was found to be 0.34 s⁻¹; in assay [2] (>100 μM PBP, 3.5 s^−1 without), 0.10 s⁻¹. For the same molecule, the Ki in assay [1] stood at 1.19 µM; in assay [2], 49.5 µM. The “inhibition of actin filament sliding” value in assay [3] is reported as “No significant inhibition”. Also, the mitochondrial morphology entry was “closely resembled that of untreated wild-type cells” in assay [4] (100 nM PBP) and “phenotype of Myo2p-depleted cells can be phenocopied” in assay [4] (500 nM PBP, 12 hours, wild-type cells, listed as PBP). The “growth kinetics of yeast cells” value in assay [4] (500 nM, listed as PDP) is given as “almost the same growth kinetics as wild type control cultures”.
